Measured values reported in patent publication US20070082956A1, “The use of 1-amino-alkylcyclohexane compounds in the treatment of pain hypersensitivity” (MERZ PHARMA GmbH & Co. KGaA, priority 2003, published 2007).

Test system: intradermal capsaicin injection model (secondary hyperalgesia)
Test: Human surrogate model of neuropathic pain (intradermal capsaicin injection), placebo-controlled double-blind crossover study
Assay type: in vivo
Experimental: This surrogate model of neuropathic pain is thus a valid method for early clinical testing of substances for the treatment of neuropathic pain. The efficacy of the neramexane, a moderate affinity, uncompetitive NMDA receptor antagonist, was tested in a placebo-controlled double-blind crossover study in the intradermal capsaicin injection model. Capsaicin (40 μg) was injected intradermally in the skin of the ventral forearm 3 hours after administration of a single oral dose of neramexane hydrochloride (40 mg) or placebo. Changes of pain sensitivity adjacent to the capsaicin injection and in a remote control area were tested in parallel by quantitative sensory testing prior to oral neramexane or placebo, 2½ hours after neramexane or placebo (i.e., prior to capsaicin injection) and 1½ hours after capsaicin injection. The capsaicin injection elicited a strong, over 5-10 min rapidly declining burning pain resulting in enhanced pain sensitivity adjacent to the injection including hyperalgesia to pin prick and pain to light touch (“allodynia”).

CC1(C)CC(C)(C)CC(C)(N)C1 [neramexane, 1-amino-1,3,3,5,5-pentamethylcyclohexane]
size of the capsaicin-induced axon reflex erythema (single oral dose 40 mg): remained unaltered | summation of pain to repetitive pin prick stimulation (trains of 10 stimuli at 1 Hz) (single oral dose 40 mg): never changed | reduction of capsaicin-induced burning pain compared to placebo (single oral dose 40 mg, 2nd-5th min after capsaicin injection, n.s.): 33% | reduction of pain to stroking light touch stimuli (allodynia) (single oral dose 40 mg, across all test times, p=0.07): 22% | reduction of pain of noxious pin pricks compared to placebo (analgesia) (single oral dose 40 mg, control area at any time and test area before capsaicin injection, p<0.001): 27-31% | reduction of pain to stroking light touch stimuli (allodynia) (single oral dose 40 mg, first 30 min after capsaicin injection, p<0.05): 25% | antihyperalgesia alone, calculated from the ratio of test and control area (single oral dose 40 mg, not significant): 9% | reduction of pin prick pain compared to placebo (combined analgesia and antihyperalgesia) (single oral dose 40 mg, test area after capsaicin injection, p<0.001): 39% | reduction of capsaicin-induced burning pain compared to placebo (single oral dose neramexane hydrochloride 40 mg, 3 hours before capsaicin 40 μg intradermal, first minute after injection, p<0.01): 21%
